# pIC50: −log10 of the molar value.
# Columns and labels:
# Assay type in all cases: biochemical, Epilobium ciliatum
# [1] = target: T1, glutamine synthetase (GS), S biotype; test: GS activity, crude leaf protein extract; conditions: read-out: I50
# T1 construct: gene GS1; native isoenzymes in crude leaf protein extract (rosette stage); isoforms not resolved
# [2] = target: T2, glutamine synthetase (GS), R2 biotype; test: GS activity, crude leaf protein extract; conditions: stated gain, read-out: I50
# T2 construct: gene GS1; native isoenzymes in crude leaf protein extract (rosette stage)
# [3] = target: T3, glutamine synthetase (GS), R1 biotype; test: GS activity, crude leaf protein extract; conditions: read-out: I50
# T3 construct: gene GS1; native isoenzymes in crude leaf protein extract (rosette stage); isoforms not resolved; described as glufosinate-sensitive
# [4] = system: T4, acetolactate synthase (ALS), S biotype; test: ALS activity, colorimetric acetoin at […] nm, de-salted leaf extract; conditions: read-out: I50
# T4 construct: native enzyme in de-salted crude extract of young leaves
Compound,pIC50 [1],pIC50 [2],pIC50 [3],pIC50 [4]
CP(=O)(O)CCC(N)C(=O)O (stereo not shown) [glufosinate],4.73,2.90,4.59,
COc1cc(OC)nc(NC(=O)NS(=O)(=O)c2ncccc2C(F)(F)F)n1 [flazasulfuron],,,,4.51

# — publication PMC5985439, “Multiple Resistance Evolution in Bipyridylium-Resistant Epilobium ciliatum After Recurrent Selection” (Frontiers in Plant Science, 2018)
